Assay [1] addresses SERT (Homo sapiens, UniProt P31645). As to the kind of experiment: fluorescence-based serotonin uptake assay (Tsuruda et al. 2010). Type of assay: cell-based. The settings on record: serotonin reuptake inhibition, fluorescence-based assay (data indicated by an asterisk); for IC50: read-out: SERT pIC50 (converted).
The target in assay [2] is NET (Homo sapiens, UniProt P23975). The experiment in a line: fluorescence-based norepinephrine uptake assay (Tsuruda et al. 2010). Type of assay: cell-based. The following applies: norepinephrine reuptake inhibition, fluorescence-based assay (data indicated by an asterisk); for IC50: read-out: NET pIC50 (converted).
Chain of NET (P23975 whole entry): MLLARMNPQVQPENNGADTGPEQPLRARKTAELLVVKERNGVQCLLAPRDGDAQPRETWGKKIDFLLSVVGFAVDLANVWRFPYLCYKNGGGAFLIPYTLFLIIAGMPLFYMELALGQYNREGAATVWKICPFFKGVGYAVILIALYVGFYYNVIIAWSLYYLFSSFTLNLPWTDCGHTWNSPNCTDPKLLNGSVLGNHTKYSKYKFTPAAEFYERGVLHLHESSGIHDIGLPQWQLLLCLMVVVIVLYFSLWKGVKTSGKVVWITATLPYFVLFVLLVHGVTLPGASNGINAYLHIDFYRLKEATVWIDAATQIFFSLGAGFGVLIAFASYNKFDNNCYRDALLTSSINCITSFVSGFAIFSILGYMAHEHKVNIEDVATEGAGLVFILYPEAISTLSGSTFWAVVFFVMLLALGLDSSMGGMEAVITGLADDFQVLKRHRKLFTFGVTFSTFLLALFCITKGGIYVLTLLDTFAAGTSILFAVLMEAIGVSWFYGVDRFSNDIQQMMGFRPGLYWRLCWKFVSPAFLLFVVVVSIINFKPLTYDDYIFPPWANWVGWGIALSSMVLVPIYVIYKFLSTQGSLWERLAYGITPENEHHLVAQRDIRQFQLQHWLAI

Marks after values point to notes of the source that are not given here. Bounds are passed on as bounds.

Chain of SERT (P31645 whole entry, species assumed): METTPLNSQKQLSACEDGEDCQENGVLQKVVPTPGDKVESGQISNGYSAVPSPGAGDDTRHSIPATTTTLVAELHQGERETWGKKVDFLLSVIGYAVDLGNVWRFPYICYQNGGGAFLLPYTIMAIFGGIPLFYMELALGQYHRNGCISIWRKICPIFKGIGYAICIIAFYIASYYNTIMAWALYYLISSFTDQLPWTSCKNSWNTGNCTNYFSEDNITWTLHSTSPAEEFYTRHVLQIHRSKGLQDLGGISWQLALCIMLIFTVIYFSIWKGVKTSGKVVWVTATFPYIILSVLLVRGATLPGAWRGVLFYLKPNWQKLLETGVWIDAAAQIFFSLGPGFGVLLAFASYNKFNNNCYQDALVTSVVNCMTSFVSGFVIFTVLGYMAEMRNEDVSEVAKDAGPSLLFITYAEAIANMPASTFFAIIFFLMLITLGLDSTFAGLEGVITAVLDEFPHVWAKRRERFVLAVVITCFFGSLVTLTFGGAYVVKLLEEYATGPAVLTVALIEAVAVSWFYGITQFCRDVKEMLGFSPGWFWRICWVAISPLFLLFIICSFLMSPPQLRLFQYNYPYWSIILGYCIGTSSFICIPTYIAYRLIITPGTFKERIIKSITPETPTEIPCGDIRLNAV

In the case of `CCOC[C@@H](Oc1cccc(C(F)(F)F)c1)[C@H]1CCNC1` [Example 7-3, (S)-3-[(S)-2-Ethoxy-1-(3-trifluoromethylphenoxy)ethyl]pyrrolidine], the IC50 in assay [1] and in assay [2] was ≤ 100 nM in each case.

As for `CSC[C@@H](Oc1cccc(C(F)(F)F)c1)[C@H]1CCNC1.O=C(O)C(F)(F)F` [Example 15-10], the “SERT pIC50” value in assay [1] was “≧7.0*”. Further, the “NET pIC50” value in assay [2] is recorded as “≧7.0*”.

Take `CCSC[C@H](Oc1ccc(Cl)cc1)[C@H]1CCNC1.O=C(O)C(F)(F)F` [Example 17-10]: in assay [1], the “SERT pIC50” value is given as “≧8.0*”. In addition, the “NET pIC50” value in assay [2] is “≧8.0*”.

Turning to `CCSC[C@H](Oc1cccc(Cl)c1C)[C@H]1CCNC1.O=C(O)C(F)(F)F` [Example 17-5], the “SERT pIC50” value in assay [1] was “≧8.0*”. For the same compound, the “NET pIC50” value in assay [2] is on record as “≧8.0*”.

With `CCSC[C@H](Oc1cccc(F)c1Cl)[C@H]1CCNC1.O=C(O)C(F)(F)F` [Example 17-3], the “SERT pIC50” value in assay [1] is recorded as “≧8.0*”. In assay [2], the “NET pIC50” value is listed as “≧8.0*”.

Consider `Clc1ccccc1O[C@@H](COCc1ccccc1)[C@H]1CCNC1` [Example 10-1], for which the “SERT pIC50” value in assay [1] was “≧7.0*”. In addition, the “NET pIC50” value in assay [2] was “≧8.0*”.

As for `CC(C)SC[C@@H](Oc1cccc(Cl)c1C(F)(F)F)[C@H]1CCNC1` [Example 19-6, (S)-3-[(S)-1-(3-Chloro-2-trifluoromethylphenoxy)-2-isopropylsulfanylethyl]pyrrolidine], the IC50 in assay [1] and in assay [2] was ≤ 10 nM each time.

On to `CCSC[C@H](Oc1ccc(Cl)c(Cl)c1)[C@H]1CCNC1.O=C(O)C(F)(F)F` [Example 17-9], for which the “SERT pIC50” value in assay [1] is “≧8.0*”. The “NET pIC50” value in assay [2] was “≧8.0*”.

In the case of `CCSC[C@@H](Oc1cccc(F)c1Cl)[C@H]1CCNC1.O=C(O)C(F)(F)F` [Example 17-4], the “SERT pIC50” value in assay [1] was “≧8.0*”. The “NET pIC50” value in assay [2] is “≧8.0*”.

Regarding `CC(C)SC[C@@H](Oc1cccc(Cl)c1Cl)[C@H]1CCNC1` [Example 19-2, (S)-3-[(S)-1-(2,3-Dichlorophenoxy)-2-isopropylsulfanylethyl]pyrrolidine], the IC50 in assay [1] and in assay [2] was ≤ 10 nM in each case.

Consider `CCSC[C@@H](Oc1ccc(Cl)cc1Cl)[C@H]1CCNC1.O=C(O)C(F)(F)F` [Example 17-8], for which the “SERT pIC50” value in assay [1] is on record as “≧8.0*”. Moreover, in assay [2], the “NET pIC50” value is listed as “≧8.0*”.

`CCOC[C@H](Oc1cccc(F)c1Cl)[C@H]1CCNC1` [Example 7-9, (S)-3-[(R)-1-(2-Chloro-3-fluorophenoxy)-2-ethoxyethyl]pyrrolidine]: the IC50 in assay [1] was ≤ 100 nM; in assay [2], ≤ 10 nM.

As for `Cc1cc(Cl)ccc1O[C@H](CO)[C@@H]1CCNC1` (stereo in doubt) [Example 1, (R)-2-(4-Chloro-2-methylphenoxy)-2-(S)-pyrrolidin-3-yl-ethanol], the IC50 in assay [1] and in assay [2] was ≤ 10 nM each time.

Turning to `CCSC[C@@H](Oc1cccc(Cl)c1C)[C@H]1CCNC1.O=C(O)C(F)(F)F` [Example 17-6], the “SERT pIC50” value in assay [1] is “≧8.0*”. Also, the “NET pIC50” value in assay [2] is given as “≧8.0*”.

As for `CCOC[C@@H](Oc1cccc(Cl)c1C(F)(F)F)[C@H]1CCNC1` [Example 7-16, (S)-3-[(S)-1-(3-Chloro-2-trifluoromethylphenoxy)-2-ethoxyethyl]pyrrolidine], the IC50 in assay [1] is ≤ 10 nM; in assay [2], ≤ 100 nM.

Regarding `Clc1ccc(OC(COCc2ccccc2)C2CCNC2)c(Cl)c1` [Example 10-3, ((S)-3-[(R)-2-Benzyloxy-1-(2,4-dichlorophenoxy)ethyl]pyrrolidine], the IC50 in assay [1] is ≤ 10 nM; in assay [2], ≤ 100 nM.

`CSC[C@H](Oc1cccc(Cl)c1C)[C@H]1CCNC1.O=C(O)C(F)(F)F` [Example 15-5]: the “SERT pIC50” value in assay [1] is “≧8.0*”. The “NET pIC50” value in assay [2] is recorded as “≧8.0*”.

Take `CSC[C@H](Oc1cccc(Cl)c1Cl)[C@H]1CCNC1.O=C(O)C(F)(F)F` [Example 15-1]: the “SERT pIC50” value in assay [1] is “≧8.0*”. For the same compound, in assay [2], the “NET pIC50” value is listed as “≧8.0*”.

Consider `CCSC[C@H](Oc1ccc(C(F)(F)F)cc1)[C@H]1CCNC1.O=C(O)C(F)(F)F` [Example 17-11], for which the “SERT pIC50” value in assay [1] is listed as “≧8.0*”. The “NET pIC50” value in assay [2] is listed as “≧8.0*”.

As for `CSC[C@H](Oc1cccc(Cl)c1C(F)(F)F)[C@H]1CCNC1.O=C(O)C(F)(F)F` [Example 15-7], the “SERT pIC50” value in assay [1] was “≧8.0*”. In assay [2], the “NET pIC50” value is “≧8.0*”.

Take `Cc1c(Cl)cccc1O[C@@H](COC(C)C)[C@H]1CCNC1` [Example 9-16, (S)-3-[(R)-1-(3-Chloro-2-methylphenoxy)-2-isopropoxyethyl]pyrrolidine]: the IC50 in assay [1] and in assay [2] was ≤ 10 nM each time.

For the compound `CCOC[C@H](Oc1ccc(C(F)(F)F)cc1Cl)[C@H]1CCNC1` [Example 7-19, (S)-3-[(R)-1-(2-Chloro-4-trifluoromethylphenoxy)-2-ethoxyethyl]pyrrolidine], the IC50 in assay [1] and in assay [2] was ≤ 10 nM throughout.

Turning to `CCOC[C@H](Oc1ccc(Cl)c(F)c1)[C@H]1CCNC1` [Example 7-26, (S)-3-[(R)-1-(4-Chloro-3-fluorophenoxy)-2-ethoxyethyl]pyrrolidine], the IC50 in assay [1] and in assay [2] was ≤ 10 nM throughout.

For the compound `CC(C)SC[C@@H](Oc1ccc(Cl)cc1Cl)[C@H]1CCNC1` [Example 19-5, (S)-3-[(S)-1-(2,4-Dichlorophenoxy)-2-isopropylsulfanylethyl]pyrrolidine], the IC50 in assay [1] is ≤ 10 nM; in assay [2], ≤ 100 nM.

For `CCOC[C@H](Oc1cccc(Cl)c1Cl)[C@H]1CCNC1` [Example 7-7, (S)-3-[(R)-1-(2,3-Dichlorophenoxy)-2-ethoxyethyl]pyrrolidine], the IC50 in assay [1] and in assay [2] was ≤ 10 nM each time.

Take `CCOC[C@H](Oc1ccc(F)cc1)[C@H]1CCNC1` [Example 7-5, (S)-3-[(R)-2-Ethoxy-1-(4-fluorophenoxy)ethyl]pyrrolidine]: the IC50 in assay [1] and in assay [2] was ≤ 100 nM in each case.

On to `CC(C)SC[C@H](Oc1cccc(Cl)c1C(F)(F)F)[C@H]1CCNC1` [Example 18, (S)-3-[(R)-1-(3-Chloro-2-trifluoromethylphenoxy)-2-isopropylsulfanylethyl]pyrrolidine], for which the IC50 in assay [1] and in assay [2] was ≤ 10 nM throughout.

In the case of `CCOC[C@@H](Oc1ccc(Cl)cc1Cl)[C@H]1CCNC1` [Example 7-17, (S)-3-[(S)-1-(2,4-Dichlorophenoxy)-2-ethoxyethyl]pyrrolidine], the results for the IC50 in assay [1] and in assay [2] were ≤ 10 nM and ≤ 100 nM, respectively.

On to `CCSC[C@@H](Oc1cccc(Cl)c1Cl)[C@H]1CCNC1.O=C(O)C(F)(F)F` [Example 17-2], for which the “SERT pIC50” value in assay [1] is “≧8.0*”. Besides, the “NET pIC50” value in assay [2] is recorded as “≧8.0*”.

With `CCOC[C@H](Oc1ccc(C(F)(F)F)cc1)[C@H]1CCNC1` [Example 7-6, (S)-3-[(R)-2-Ethoxy-1-(4-trifluoromethylphenoxy)ethyl]pyrrolidine], the IC50 was ≤ 10 nM in assay [1] and ≤ 100 nM in assay [2].

As to `CSC[C@H](Oc1ccc(Cl)cc1C)[C@H]1CCNC1` [Example 14, (S)-3-[(R)-1-(4-Chloro-2-methylphenoxy)-2-methylsulfanylethyl]pyrrolidine], the IC50 in assay [1] and in assay [2] was ≤ 10 nM each time.

In the case of `CCOC[C@H](Oc1ccc(F)cc1Cl)[C@H]1CCNC1` [Example 7-18, (S)-3-[(R)-1-(2-Chloro-4-fluorophenoxy)-2-ethoxyethyl]pyrrolidine], the IC50 is ≤ 100 nM in assay [1] and ≤ 10 nM in assay [2].

On to `CC(C)OC[C@H](Oc1c(Cl)cccc1Cl)[C@H]1CCNC1` [Example 9-29, (S)-3-[(R)-1-(2,6-Dichlorophenoxy)-2-isopropoxyethyl]pyrrolidine], for which the IC50 is ≤ 100 nM in assay [1] and ≤ 10 nM in assay [2].

For the compound `CSC[C@H](Oc1cccc(C(F)(F)F)c1)[C@H]1CCNC1.O=C(O)C(F)(F)F` [Example 15-9], in assay [1], the “SERT pIC50” value is on record as “≧7.0*”. Moreover, the “NET pIC50” value in assay [2] is reported as “≧7.0*”.

`CC(C)SC[C@@H](Oc1cccc(F)c1Cl)[C@H]1CCNC1` [Example 19-4, (S)-3-[(S)-1-(2-Chloro-3-fluorophenoxy)-2-isopropylsulfanylethyl]pyrrolidine]: the IC50 in assay [1] and in assay [2] was ≤ 10 nM each time.

On to `CCOC[C@H](Oc1cc(F)cc(Cl)c1)[C@H]1CCNC1` [Example 7-28, (S)-3-[(R)-1-(3-Chloro-5-fluorophenoxy)-2-ethoxyethyl]pyrrolidine], for which the IC50 in assay [1] was ≤ 100 nM; in assay [2], ≤ 10 nM.

For `CCOC[C@H](Oc1cccc(Cl)c1C(F)(F)F)[C@H]1CCNC1` [Example 7-15, (S)-3-[(R)-1-(3-Chloro-2-trifluoromethylphenoxy)-2-ethoxyethyl]pyrrolidine], the IC50 in assay [1] and in assay [2] was ≤ 10 nM in each case.

With `CC(C)OC[C@@H](Oc1cccc(Cl)c1C(F)(F)F)[C@H]1CCNC1` [Example 9-19, (S)-3-[(S)-1-(3-Chloro-2-trifluoromethylphenoxy)-2-isopropoxyethyl]pyrrolidine], the IC50 in assay [1] and in assay [2] was ≤ 10 nM in each case.

For the compound `CCOC[C@H](Oc1cc(Cl)cc(Cl)c1)[C@H]1CCNC1` [Example 7-27, (S)-3-[(R)-1-(3,5-Dichlorophenoxy)-2-ethoxyethyl]pyrrolidine], the IC50 was ≤ 100 nM in assay [1] and ≤ 10 nM in assay [2].

`CSC[C@@H](Oc1cccc(F)c1Cl)[C@H]1CCNC1.O=C(O)C(F)(F)F` [Example 15-4]: in assay [1], the “SERT pIC50” value is reported as “≧8.0*”. Further, in assay [2], the “NET pIC50” value is reported as “≧8.0*”.

In the case of `CCSC[C@@H](Oc1cccc(Cl)c1C(F)(F)F)[C@H]1CCNC1.O=C(O)C(F)(F)F` [Example 17-14], the “SERT pIC50” value in assay [1] is given as “≧8.0*”. Besides, the “NET pIC50” value in assay [2] is given as “≧7.0*”.

Take `OC[C@@H](Oc1cccc(Cl)c1Cl)[C@@H]1CCNC1` (stereo in doubt) [Example 2-2, (R)-2-(2,3-Dichlorophenoxy)-2-(S)-pyrrolidin-3-yl-ethanol]: the IC50 in assay [1] is ≤ 100 nM; in assay [2], ≤ 10 nM.
